Where two headings read alike, the source gives them in different places.
Experiments:
C3aR = biological target: T1, C3aR (Homo sapiens, UniProt Q16581); assay: Calcium mobilization assay in HMDM (agonist/antagonist activity); assay type: cell-based; conditions: for Emax at 10 µM: read-out: % agonist
T1 construct: peripheral blood mononuclear cells were isolated from buffy coat (obtained from Australian Red Cross Blood Service, Kelvin Grove); endogenous in cells; host or cells: primary human monocyte-derived macrophages (HMDM) differentiated from CD14+ monocytes of donor buffy coat
T1 sequence (Q16581 1-482): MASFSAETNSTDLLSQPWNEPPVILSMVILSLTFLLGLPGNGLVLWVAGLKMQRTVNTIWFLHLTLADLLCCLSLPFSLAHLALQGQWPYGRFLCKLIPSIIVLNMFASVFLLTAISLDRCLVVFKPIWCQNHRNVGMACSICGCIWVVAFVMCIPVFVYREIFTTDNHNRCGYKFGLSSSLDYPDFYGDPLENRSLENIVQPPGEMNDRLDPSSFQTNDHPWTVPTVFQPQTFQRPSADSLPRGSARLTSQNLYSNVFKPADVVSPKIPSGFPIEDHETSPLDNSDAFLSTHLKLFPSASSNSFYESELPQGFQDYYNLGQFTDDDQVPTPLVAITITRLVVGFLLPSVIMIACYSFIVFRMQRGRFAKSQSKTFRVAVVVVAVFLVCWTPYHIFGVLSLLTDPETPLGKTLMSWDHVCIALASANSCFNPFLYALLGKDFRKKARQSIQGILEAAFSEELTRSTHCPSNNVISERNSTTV
Description: Harvested HMDM cells were washed with 0.9% NaCl solution by centrifugation at 2500 rpm for 5 min, followed by resuspension of the cell pellet with complete media. Cells were seeded at 5×10^4 cells/well in a 96-well black-wall, clear bottom plate (DKSH, Zurich), and left overnight to adhere at 37° C. On the day of the experiment, supernatant was removed and cells were incubated in dye loading buffer (Hank's Balanced Salt Solution (HBSS) with 4 μM Fluo-3, 25 μL pluronic acid, 1% fetal bovine serum (FBS) and 2.5 mM probenecid) for one hour at 37° C. Cells were then washed twice with HBSS and transferred to a Fluorostar spectrofluorimeter (BMG, Durham N.C.) for oxazole compound injection and fluorescence measurements.
Various compounds were examined in the calcium mobilization assay for agonist or antagonist activity compared to hC3a and to the known antagonist SB290157.
HMDMs were seeded into black-wall, clear bottom 96-well plates (Corning Incorporated, NY) at 50,000 cells/well and left to incubate at 37° C. with 5% CO2 overnight for cells to adhere. The medium was removed before being washed with the assay buffer (1×HBSS, 20 mM HEPES, 2.5 mM probenecid, pH 7.4). To each well was added 100 μL of dye-loading buffer made up of 12 mL calcium buffer, 1% FBS, 25 μL of Fluo-3 dye (final concentration of 4 μM) and 25 μL of 20% pluronic acid. The plate was covered in aluminium foil to protect the light-sensitive dye and left to incubate at 37° C. for 1 h. The dye-loading buffer was removed before the cells were washed with the assay buffer to remove excess loading dye. To each well was added 50 μL of fresh assay buffer before the plate was loaded into a FLIPR (Fluorescent Imaging Plate Reader) that can inject treatments and measure any calcium release. To generate agonist plots, calcium release was monitored for 300 seconds. To generate antagonist plots, calcium release was recorded for 900 seconds, which at the same time would allow incubation for the antagonists. After the initial incubation period, an agonist would be added and the response was recorded for 300 seconds. Intracellular release of calcium was recorded via fluorescence measurements at wavelength of 485 nm for excitation and 520 nm for emission.

C3a receptor (C3aR) = biological target: T2, C3a receptor (C3aR) (Homo sapiens, UniProt Q16581); assay: Competitive binding with [^125I]-C3a in HMDM; conditions: for remaining activity at 20 µM: 1 h, read-out: %[^125I]-C3a binding
T2 construct: peripheral blood mononuclear cells were isolated from buffy coat (obtained from Australian Red Cross Blood Service, Kelvin Grove); endogenous in cells; host or cells: primary human monocyte-derived macrophages (HMDM) differentiated from CD14+ monocytes of donor buffy coat
T2 sequence (Q16581 1-482): T1 sequence (Q16581 1-482)
Text: For HMDM, peripheral blood mononuclear cells were isolated from buffy coat (obtained from Australian Red Cross Blood Service, Kelvin Grove) using Ficoll-paque density centrifugation (GE Healthcare Bio-Science, Uppsala, Sweden). CD^14+ monocytes were positively selected using CD^14+ MACS magnetic beads (Miltenyi Biotech, Auburn, Calif., USA). […] Cells were harvested by gentle scraping in saline solution and replated for use on Day 7. […] Unbound radioactivity was removed by filtration through glass microfiber filters GF/B (Whatman Iner. […] The filter was washed 3 times with cold buffer (50 mM Tris-HCl) pH 7.4. […] The −log IC50 for each compound was calculated for separate experiments and express as an arithmetic mean standard error (SE). IC50 values were expressed as a geometric mean.

[1] = Table 6, competitive binding with [^125I]-C3a, HMDM, read-out: IC50 (converted)
[2] = Table 6, competitive binding with [^125I]-C3a, HMDM
[3] = Table 9, Ca^2+ mobilization, HMDM, read-out: EC50
[4] = Table 14, binding affinity for C3aR on HMDM, read-out: -Log IC50 (converted)

## Cc1oc([C@H](CC(C)C)NC(=O)CC2CCCCC2)nc1C(=O)N[C@@H](CCCNC(=N)N)C(=O)O [Compound 33, Cyclohexyl acetic acid-Leucine-5-Methyl-Oxazole-Arginine]
C3aR
  Emax at 10 µM: 69%
C3a receptor (C3aR)
  remaining activity at 20 µM: 26%

## CC(C)C[C@H](NC(=O)OC(C)(C)C)c1nc(C(=O)N[C@@H](Cc2ccc(C(=N)NO)cc2)C(=O)O)co1 [Compound 84, (S)-2-(2-((S)-1-((tert-butoxycarbonyl)amino)-3-methylbutyl)oxazole-4-carboxamido)-3-(4-(N-hydroxycarbamimidoyl)phenyl)propanoic acid]
C3a receptor (C3aR); [1]
  IC50: 76 nM

## N#CN=C(N)NCCC[C@H](NC(=O)c1ccc(C(c2ccccc2)c2ccccc2)s1)C(=O)O [Compound 95, (S)-2-(5-benzhydrylthiophene-2-carboxamido)-5-(2-cyanoguanidino)pentanoic acid]
C3aR; Table 13, calcium release from HMDM, read-out: Antagonist Activity IC50
  IC50: 900 nM
C3a receptor (C3aR); [1]
  IC50: 853 nM

## COc1ccc(CCC(=O)N[C@@H](CC(C)C)c2nc(C(=O)N[C@@H](CCCNC(=N)N)C(=O)O)c(C)o2)cc1 [Compound 41, 3-(4-Methoxyphenyl)propionic acid-Leucine-5-Methyl-Oxazole-Arginine]
C3aR
  Emax at 10 µM: 44%
C3a receptor (C3aR)
  remaining activity at 20 µM: 44%

## Cc1oc([C@H](CC(C)C)NC(=O)c2cc3ccccc3s2)nc1C(=O)N[C@@H](CCCNC(=N)N)C(=O)O [Compound 27, Benzothiophene-2-carboxylic acid-Leucine-5-Methyl-Oxazole-Arginin]
C3aR
  Emax at 10 µM: 62%
C3a receptor (C3aR)
  remaining activity at 20 µM: 14%

## CC(C)Cc1ccc([C@H](C)C(=O)N[C@@H](CC(C)C)c2nc(C(=O)N[C@@H](CCCNC(=N)N)C(=O)O)co2)cc1 [Compound 14, 2-(4-isobutylphenyl)propanoic acid Leucine-Oxazole-Arginine-OH]
C3a receptor (C3aR); [1]
  IC50: 1030 nM

## COc1ccc(OC)c(CC(=O)N[C@@H](CC(C)C)c2nc(C(=O)N[C@@H](CCCNC(=N)N)C(=O)O)c(C)o2)c1 [Compound 44, 2,5-Dimethoxy-phenyl acetic acid-Leucine-5-Methyl-Oxazole-Arginine]
C3aR
  Emax at 10 µM: 69%
C3a receptor (C3aR)
  remaining activity at 20 µM: 42%

## N=C(N)NCCC[C@H](NC(=O)c1ccc(C(c2ccccc2)c2ccccc2)o1)C(=O)O [Compound 57, 5-Diphenylmethyl-furan-2-carboxyl-Arg-OH]
C3aR; text of Example 100
  Function at C3aR (agonist / antagonist): antagonist

## N=C(N)NCCC[C@H](NC(=O)c1nc(C(c2ccccc2)c2ccccc2)[nH]c1-c1ccccc1)C(=O)O [Compound 62, 2-Diphenylmethyl-4-phenyl imidazole-5-carboxyl-Arg-OH]
C3aR; Table 10, HMDM, read-out: Agonist Activity EC50
  EC50: > 100000 nM
C3aR; Table 10, HMDM, read-out: Antagonist Activity Ca^2+ IC50
  IC50: 600 nM
C3a receptor (C3aR); Table 8, HMDM, read-out: Receptor Binding Affinity ^125I IC50
  IC50: 46 nM

## CC[C@H](C)[C@H](NC(=O)c1ccc(C(=O)c2ccccc2)cc1)c1nc(C(=O)N[C@@H](CCCNC(=N)N)C(=O)O)co1 [Compound 12, 4-Benzoylbenzoic acid-Isoleucine-Oxazole-Arginine-OH]
C3a receptor (C3aR); [2]
  pIC50 ± SEM: 6.80 ± 0.15
C3a receptor (C3aR); [1]
  IC50: 157 nM

## CC(C)C[C@H](NC(=O)Cc1ccc(F)cc1)c1nc(C(=O)N[C@@H](CCCNC(=N)N)C(=O)O)co1 [Compound 24, 2-(4-fluorophenyl)acetic acid-Leucine-Oxazole-Arginine-OH]
C3aR; Table 9, Ca^2+ mobilization, HMDM
  pEC50 ± SEM: 6.28 ± 0.16
C3aR; [3]
  EC50: 527 nM
C3a receptor (C3aR); [2]
  pIC50 ± SEM: 6.99 ± 0.10
C3a receptor (C3aR); [1]
  IC50: 102 nM

## CC(C)(C)OC(=O)N[C@@H](Cc1ccccc1)c1nc(C(=O)N[C@@H](CCCNC(=N)N)C(=O)O)co1 [Compound 3, Boc-L-Phenylalanine-Oxazole-Arg]
C3a receptor (C3aR); [1]
  IC50: 509 nM

## CC(C)C[C@H](NC(=O)OC(C)(C)C)c1nc(C(=O)N[C@@H](CCCNC(=N)N[N+](=O)[O-])C(=O)O)co1 [Compound 89, (S)-2-(2-((S)-1-((tert-butoxycarbonyl)amino)-3-methylbutyl)oxazole-4-carboxamido)-5-(3-nitroguanidino)pentanoic acid]
C3a receptor (C3aR); [1]
  IC50: 129 nM

## Cc1c(C(=O)N[C@@H](CCCNC(=N)N)C(=O)O)nc(C(c2ccccc2)c2ccccc2)n1C [Compound 97, 2-Benzhydryl-1,5-Dimethyl imidazole-4-carboxyl-Arginine]
C3a receptor (C3aR); [1]
  IC50: 1140 nM
C3a receptor (C3aR); [4]
  IC50: 1260 nM

## N=C(N)NCCC[C@H](NC(=O)c1cnc(C(c2ccccc2)c2ccccc2)s1)C(=O)O [Compound 78]
C3a receptor (C3aR); [4]
  IC50: 3.98 nM

## COc1cccc(C(=O)N[C@@H](CC(C)C)c2nc(C(=O)N[C@@H](CCCNC(=N)N)C(=O)O)c(C)o2)c1 [Compound 42, m-Anisic acid-Leucine-5-Methyl-Oxazole-Arginine]
C3aR
  Emax at 10 µM: 134%

## CC[C@H](C)[C@H](NC(=O)c1ccc(N(C)C)cc1)c1nc(C(=O)N[C@@H](CCCNC(=N)N)C(=O)O)co1 [Compound 11, 4-(Dimethylamino)benzoic acid-Isoleucine-Oxazole-Arginine-OH]
C3a receptor (C3aR); [2]
  pIC50 ± SEM: 6.10 ± 0.16
C3a receptor (C3aR); [1]
  IC50: 800 nM

## Cc1oc([C@H](CC(C)C)NC(=O)c2ccncc2)nc1C(=O)N[C@@H](CCCNC(=N)N)C(=O)O [Compound 31, Isonicotinic acid-Leucine-5-Methyl-Oxazole-Arginine]
C3aR
  Emax at 10 µM: 109%

## CC(C)C[C@H](NC(=O)C1c2ccccc2-c2ccccc21)c1nc(C(=O)N[C@@H](CCCNC(=N)N)C(=O)O)co1 [Compound 17, 9-Fluorenecarboxylic acid-Leu-Oxazole-Arginine-OH]
C3a receptor (C3aR); [2]
  pIC50 ± SEM: 6.85 ± 0.15
C3a receptor (C3aR); [1]
  IC50: 142 nM

## CC(C)(C)OC(=O)N[C@@H](Cc1c[nH]c2ccccc12)c1nc(C(=O)N[C@@H](CCCNC(=N)N)C(=O)O)co1 [Compound 4, Boc-L-Tryptophan-Oxazole-Arg]
C3a receptor (C3aR); [1]
  IC50: 2290 nM

## CC(C)C[C@H](NC(=O)OC(C)(C)C)c1nnc(C(=O)N[C@@H](CCCNC(=N)N)C(=O)O)o1 [Compound 83, Boc-Leucine-1-oxa-3,4-diazole-Arginine-OH]
C3a receptor (C3aR); [1]
  IC50: 1220 nM

## Cc1oc([C@H](CC(C)C)NC(=O)CCC(C)C)nc1C(=O)N[C@@H](CCCNC(=N)N)C(=O)O [Compound 35, 4-Methyl valeric acid-Leucine-5-Methyl-Oxazole-Arginine]
C3aR
  Emax at 10 µM: 95%

## Cc1c(C(=O)N[C@@H](CCCNC(=N)N)C(=O)O)nc([C@H](CC(C)C)NC(=O)OC(C)(C)C)n1C [Compound 81, Boc-Leucine-1-methylimidazole-Arginine-OH]
C3aR; [3]
  EC50: 60 nM

## Cc1ccc(NC(=O)N[C@@H](CC(C)C)c2nc(C(=O)N[C@@H](CCCNC(=N)N)C(=O)O)c(C)o2)cc1 [Compound 45, p-Tolyl isocyanate-Leucine-5-Methyl-Oxazole-Arginine]
C3aR
  Emax at 10 µM: 64%

## CC(C)C[C@H](NC(=O)[C@@H](C)c1ccc(N2Cc3ccccc3C2=O)cc1)c1nc(C(=O)N[C@@H](CCCNC(=N)N)C(=O)O)co1 [Compound 15, 2-(4-(1-oxoisoindolin-2-yl)phenyl)propanoic acid Leucine-Oxazole-Arginine-OH]
C3a receptor (C3aR); [1]
  IC50: 451 nM

## Cc1oc([C@H](CC(C)C)NC(=O)c2ccc(Oc3ccccc3)cc2)nc1C(=O)N[C@@H](CCCNC(=N)N)C(=O)O [Compound 49, 4-Phenoxybenzoic acid-Leucine-5-Methyl-Oxazole-Arginine]
C3aR
  Emax at 10 µM: 105%

Reference: patent publication US9586914B2, “Modulators of C3a receptors” (THE UNIVERSITY OF QUEENSLAND, priority 2011, dated 2017)
